“Also recorded” adds a separate entry of the source. Where a name gives a salt, the structure may show the parent alone.
Columns and labels:
VCaP cells = experiment: MTT cell growth, VCaP; type: cell-based
Experimental: (§1) Identification of a 3α-oxidoreductase inhibitors: Various non-steroidal compounds were tested for anti-neoplastic activity by screening against PC-3 CaP cells. Coumarin-labeled androgens were developed to track changes in androgen metabolism pathways in response to castration or androgen metabolism inhibition using in vitro and in vivo CaP cell models.
(§2) VCaP, CWR-R1 and PC-3 cells were treated for six days with complete culture media (CM), serum-free culture media (SFM), bicalutamide (Bic) at 10 μM, the coumarin C at 20 μM, DHT at 10 nM, DHT-17C at 20 nM and DHT-3C at 20 nM (FIG. 20). […] MTT analysis was performed to compare cell growth impairment of VCaP cells treated with DHT-17C versus enzalutamide. Cells were treated with DHT-17C at 1 nM, 12 nM, 20 nM, 50 nM or 100 nM concentrations, or enzalutamide at 1 μM, 12 μM, 20 μM, 50 μM or 100 μM concentrations. […] MTT performed using ezanlutamide (20 uM) or DHT-17C (50 nM) treated mutant AR and AR-V7 positive CWR-R1 cells supported VCaP MTT data (FIG. 22).

CWR-R1 cells = experiment: MTT cell growth, CWR-R1; type: cell-based, human; details: six days; DHT-17C at 20 nM, DHT-3C at 20 nM
Experimental: as §1, §2

LAPC-4 cells = experiment: MTT cell growth, LAPC-4; type: cell-based; details: six days; data not shown
LNCaP cells = experiment: MTT cell growth, LNCaP; type: cell-based; details: six days; data not shown
CaP cell lines = experiment: MTT CaP cell growth during androgen deprivation, cell line panel; type: cell-based; details: SFM with DHT-3C, six days
From the text: MTT analysis was used to assess if treatment with DHT-3C facilitated CaP cell growth during androgen deprivation. […] SFM with DHT-3C stimulated growth in 3 of 5 cell lines (FIG. 25).

AR-GFP = biological target: T1, AR-GFP (Homo sapiens, UniProt P10275); experiment: ImageStream nuclear co-localization with AR-GFP; type: cell-based
T1 construct: expressed in transfected cells; host or cells: VCaP, PC-3 (also LAPC-4, CWR-R1, 22Rv1, DU145)
T1 sequence (P10275 1-920): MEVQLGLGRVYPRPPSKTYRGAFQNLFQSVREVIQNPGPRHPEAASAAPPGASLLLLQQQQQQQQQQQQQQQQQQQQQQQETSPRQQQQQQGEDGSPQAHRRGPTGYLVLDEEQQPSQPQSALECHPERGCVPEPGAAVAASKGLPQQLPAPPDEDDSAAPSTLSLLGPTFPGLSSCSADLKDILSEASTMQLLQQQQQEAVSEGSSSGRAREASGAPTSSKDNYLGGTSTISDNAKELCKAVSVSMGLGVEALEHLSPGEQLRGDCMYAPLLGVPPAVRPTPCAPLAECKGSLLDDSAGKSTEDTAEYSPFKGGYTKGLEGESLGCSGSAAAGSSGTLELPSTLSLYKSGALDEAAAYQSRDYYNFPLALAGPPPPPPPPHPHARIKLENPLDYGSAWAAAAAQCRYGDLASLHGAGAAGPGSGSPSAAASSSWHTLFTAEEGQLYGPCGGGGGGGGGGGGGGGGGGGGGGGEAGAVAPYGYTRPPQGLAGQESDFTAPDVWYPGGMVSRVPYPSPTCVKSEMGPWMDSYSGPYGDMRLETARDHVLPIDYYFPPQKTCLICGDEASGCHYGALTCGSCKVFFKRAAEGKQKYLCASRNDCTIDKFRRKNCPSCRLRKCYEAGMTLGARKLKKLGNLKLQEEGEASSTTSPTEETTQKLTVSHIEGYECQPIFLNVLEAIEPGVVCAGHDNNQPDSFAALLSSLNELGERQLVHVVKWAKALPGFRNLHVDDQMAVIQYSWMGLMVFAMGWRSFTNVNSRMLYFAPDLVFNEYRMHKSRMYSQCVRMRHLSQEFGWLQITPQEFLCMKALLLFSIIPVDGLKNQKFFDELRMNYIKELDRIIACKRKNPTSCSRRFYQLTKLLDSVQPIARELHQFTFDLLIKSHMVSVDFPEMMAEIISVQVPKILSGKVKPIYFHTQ
From the text: Androgen-sensitive AR-positive LAPC-4 and VCaP, castration-recurrent and AR-positive CWR-R1 and CWR-22rv1 (22rv1), and AR-negative PC-3 and DU145 cells were transfected with either an empty pCMV expression plasmid (control) or a pCMV plasmid that encoded a wild-type AR tagged with a C-terminal green fluorescent protein (GFP; AR-GFP). AR-positive CaP cell lines were transfected with AR-GFP to assess if DHT-17C or DHT-3C co-localized with AR and translocated to the nucleus.
AR positive CaP cell lines were treated for 16 hours with androgen-free, serum-free complete media (SFM) alone, or SFM that contained 20 nM or 50 nM fluorescent-androgens or C alone. The time points were chosen to measure differences in uptake of the fluorescent-androgens and nuclear or cytosolic localization of the fluorescent-androgens and/or AR-GFP.
Serum-free complete media (SFM)^2 was used to androgen deprive cells.

[1] = test system: AR- or AR-GFP negative PC-3 cells; experiment: ImageStream nuclear localization in AR-negative PC-3 cells; type: cell-based; details: PC-3 cells without AR or AR-GFP (empty plasmid); hydrochloride
Experimental: (§3) ImageStream studies were repeated using VCaP and PC-3 cells that stably expressed AR-V2 (splice-variant that lacked the N-terminus) with C-terminal GFP (AR-V2-GFP). […] ImageStream data was confirmed using immunoprecipation (IP) studies performed with a DHT-targeted antibody.
(§4) Serum-free complete media (SFM)^2 was used to androgen deprive cells. PC-3 cells that contained empty plasmid were treated with SFM alone, SFM with C or SFM with DHT-3C.

AR-V2-GFP = biological target: T2, AR-V2-GFP (Homo sapiens, UniProt P10275); experiment: ImageStream co-localization with AR-V2-GFP; type: cell-based; details: VCaP and PC-3 cells that stably expressed AR-V2-GFP; hydrochloride
T2 construct: stably expressed AR170 LBD only with splice variant V2 (AR-V2-GFP); expressed in transfected cells; host or cells: VCaP, PC-3
T2 sequence (P10275 1-388 isoform P10275-2): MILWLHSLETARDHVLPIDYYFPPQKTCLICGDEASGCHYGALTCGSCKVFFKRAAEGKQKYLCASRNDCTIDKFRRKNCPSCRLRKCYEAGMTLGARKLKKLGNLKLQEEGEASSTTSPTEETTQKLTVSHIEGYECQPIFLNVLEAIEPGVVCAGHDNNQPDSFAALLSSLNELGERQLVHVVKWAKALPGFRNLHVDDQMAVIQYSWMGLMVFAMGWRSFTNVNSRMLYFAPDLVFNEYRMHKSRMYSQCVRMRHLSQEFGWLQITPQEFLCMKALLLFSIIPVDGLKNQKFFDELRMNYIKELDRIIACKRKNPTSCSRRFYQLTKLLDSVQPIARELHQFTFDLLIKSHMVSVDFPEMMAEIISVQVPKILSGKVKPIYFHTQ
Experimental: as §3, §4

KLK2 [2] = experiment: qRT-PCR of AR-regulated gene KLK2; type: cell-based; details: 24 hours; VCaP, LAPC-4, LNCaP, CWR-R1 and 22rv1 cells
KLK2 [3] = experiment: Western blot of AR-regulated protein expression; type: cell-based; details: CaP cell lines
CRPC = details: cited from earlier work

Compound | VCaP cell growth (MTT) (VCaP cells; six days, DHT-17C at 20 nM, DHT-3C at 20 nM) | CWR-R1 cell growth (MTT) (CWR-R1 cells) | LAPC-4 cell growth (MTT) (LAPC-4 cells) | LNCaP cell growth (MTT) (LNCaP cells) | cell lines with stimulated growth (CaP cell lines) | nuclear co-localization with AR-GFP (AR-GFP; PC-3-AR-GFP cells, SFM) | nuclear co-localization with AR-GFP (AR-GFP; VCaP that stably expressed AR-GFP) | nuclear co-localization with AR-GFP and DRAQ5 (AR-GFP; VCaP-AR-GFP and PC-3-AR-GFP cells) | nuclear localization in AR-negative cells [1] | co-localization with AR-V2-GFP (AR-V2-GFP) | KLK2 transcript induction (KLK2 [2]) | AR-regulated protein expression levels (KLK2 [3]) | VCaP cell growth impairment versus DHT-17C (VCaP cells; enzalutamide at 1, 12, 20, 50 or 100 μM) | extension of survival (CRPC)
C[C@]12CC[C@]3(C[C@@H]1CC[C@@H]1[C@@H]2CC[C@]2(C)[C@@H](O)CC[C@@H]12)NCCc1c3c(=O)oc2c3c4c(cc12)CCCN4CCC3 [DHT-3C, (3R,5S,10S,13S,17S)-17-hydroxy-10,13-dimethyl-1,2,2′,3′,4,5,6,7,8,8′,9,9′,10,11,12,12′,13,13′,14,15,16,17-docosahydro-7′H,11′H-spiro[cyclopenta[a]phenanthrene-3,4′-pyrido[3,2,1-ij]pyrido[4′,3′:4,5]pyrano[2,3-j]quinolin]-5′(1′H)-one hydrochloride] | promoted VCaP, LAPC-4, and LNCaP cell growth | promoted | promoted VCaP, LAPC-4, and LNCaP cell growth | promoted VCaP, LAPC-4, and LNCaP cell growth | 3 of 5 | showed nuclear co-localization between DHT-3C and AR-GFP | demonstrated co-localization between DHT-3C and AR-GFP | co-localized with AR-GFP | did not produce nuclear fluorescence | co-localized with DRAQ5 and AR-V2-GFP; also recorded: co-localized with the AR LBD | produced similar inductions of expression | produced similar AR-regulated protein expression levels |  | 
CNC(=O)c1ccc(N2C(=S)N(c3ccc(C#N)c(C(F)(F)F)c3)C(=O)C2(C)C)cc1F [enzalutamide, reference compound] |  |  |  |  |  |  |  |  |  |  |  |  | impaired VCaP cell growth to similar extents | 4.8 months

Source: patent US12337004B2, “Coumarin-modified androgens for the treatment of prostate cancer” (Health Research, Inc., priority 2019, dated 2025)
